# Measured values: US20050227994A1, “Decomposition inhibitor for extracellular matrix of cartilage” (Shionogi & Co., Ltd., priority 2002, published 2005)
# Target: T1, MMP-13 (Homo sapiens, UniProt P45452)
# T1 construct: catalytic domain (^104Tyr˜^267Gly) was amplified with RT-PCR; His-tag; enterokinase digestion-site; made in house
# Assay: Assay for inhibitory activities on MMP-13
# Format: biochemical
# Settings: not given
# Procedure: In regard to MMP-13, mRNA was prepared from carcinoma cell SW1353 derived from human cartilage stimulate by IL-1, TNF and catalytic domain (^[…]) was amplified with RT-PCR. This was cloned in Escherichia. coli expression vector […] inserted with His-tag sequence and enterokinase digestion-site, induced and expressed by IPTG (Isopropyl-β-D-thiogalactopyranoside) and expressed in a insoluble fraction. Isolation of MMP-13 from an insoluble fraction was carried out by dissolving in modifier (6M urea) by a usual method and purification with metal chelate chromatography (Ni […] Sepharose). […] The enzymatic activity on MMP was analyzed by the method described in “C. Graham Knight, Frances Willenbrock and Gillian Murphy: A novel coumarin-labelled peptide for sensitive continuous assays of the matrix metalloproteinases: […] The substrate: MOCAc-[…] was purchased from Peptide Institute, Inc., Osaka, Japan.
row,SMILES,IC50 [µM]
1,O=C(O)[C@@H](Cc1ccccc1)NS(=O)(=O)c1ccc(-c2ccc(C#Cc3ccc4ccccc4c3)cc2)cc1 [Compound E-29],0.00992

# Same assay, conditions: catalytic domain, substrate MOCAc-Pro-Leu-Gly-Leu-A2Pr(DNP)-Ala-Arg-NH2; read-out: MMP-13 (IC50μM)
row,IC50 [µM],SMILES
1,> 10,O=C(O)[C@@H](Cc1ccccc1)NS(=O)(=O)c1ccc(C#Cc2ccc3ccccc3c2)cc1 [Compound G-5]
2,0.0094,CSc1ccc(-c2ccc(S(=O)(=O)NC(CC(C)C)C(=O)O)s2)cc1 (stereo not drawn) [Compound F-4]
3,0.0105,CSCC[C@H](NS(=O)(=O)c1ccc(-c2ccc(SC)cc2)cc1)C(=O)O [Compound E-8]
4,0.027,CCc1ccc(-c2nc(-c3ccc(S(=O)(=O)N[C@H](Cc4ccccc4)C(=O)O)cc3)no2)cc1 [Compound C-2]
5,0.811,Cc1ccc(-c2ccc(S(=O)(=O)NC(C(=O)O)C(C)C)s2)cc1 (stereo not drawn) [Compound F-20]
6,0.0831,CSc1ccc(-c2ccc(S(=O)(=O)NC(Cc3ccccc3)C(=O)O)s2)cc1 (stereo not drawn) [Compound F-24]
7,0.0065,CC(C)C[C@H](NS(=O)(=O)c1ccc(-c2ncc(-c3ccc(Cl)cc3)s2)cc1)C(=O)O [Compound A-9]
8,0.0135,CCSc1ccc(-c2ccc(S(=O)(=O)NC(C)C(=O)O)cc2)cc1 (stereo not drawn) [Compound E-14]
9,0.1,CCCCc1ccc(-c2noc(-c3ccc(S(=O)(=O)N[C@H](Cc4ccccc4)C(=O)O)cc3)n2)cc1 [Compound D-3]
10,0.0443,O=C(O)[C@@H](Cc1ccccc1)NS(=O)(=O)c1ccc(-c2ncc(-c3ccc(Cl)cc3)o2)cc1 [Compound B-3]
11,0.023,C[C@@H](NS(=O)(=O)c1ccc(-c2ccc(-n3cccc3)cc2)s1)C(=O)O [Compound F-15]
12,0.353,CN(C)c1ccc(-c2ccc(S(=O)(=O)N[C@H]3CCC[C@@H]3C(=O)O)s2)cc1 [Compound O-3]
13,6,O=C(O)c1ccc(C#Cc2ccc(S(=O)(=O)N[C@H](Cc3ccccc3)C(=O)O)s2)cc1 [Compound H-3]
14,0.0169,O=C(O)[C@@H](Cc1ccccc1)NS(=O)(=O)c1ccc(-c2ncc(-c3ccc(Cl)c(Cl)c3)o2)cc1 [Compound B-5]
15,1.09,CC(C)C[C@@H](NS(=O)(=O)c1ccc(C#Cc2ccc3[nH]c(=O)sc3c2)cc1)C(=O)O [Compound G-15]
16,0.043,O=C(O)[C@H](Cc1c[nH]c2ccccc12)NS(=O)(=O)c1ccc(-c2ccc(N3CCCC3)cc2)s1 [Compound F-7]
17,0.0318,CNc1ccc(-c2ccc(S(=O)(=O)N[C@H](Cc3ccccc3)C(=O)O)s2)cc1 [Compound F-12]
18,0.763,C[C@H](NS(=O)(=O)c1ccc(-c2ncc(-c3ccc4ccccc4c3)o2)cc1)C(=O)O [Compound B-2]
19,0.182,CCc1ccc(-c2nc(-c3ccc(S(=O)(=O)N[C@H](Cc4ccccc4)C(=O)O)s3)no2)cc1 [Compound N-8]
20,0.0328,Cc1ccc(C#Cc2ccc(S(=O)(=O)N[C@H](Cc3c[nH]c4cccc(O)c34)C(=O)O)s2)cc1 [Compound H-5]
21,0.114,O=C(O)[C@@H](Cc1ccccc1)NS(=O)(=O)c1ccc(-c2ncc(-c3ccccc3)s2)s1 [Compound N-7]
22,0.029,NCCc1ccc(-n2nnc(-c3ccc(S(=O)(=O)N[C@H](Cc4ccccc4)C(=O)O)cc3)n2)cc1 [Compound I-3]
23,1.26,CNc1ccc(-c2ccc(S(=O)(=O)NC(C(=O)O)C(C)C)s2)cc1 (stereo not drawn) [Compound F-21]

row,IC50 [µM],SMILES
1,0.0038,CSCC[C@@H](NS(=O)(=O)c1ccc(-c2ncc(-c3ccc(Br)cc3)s2)cc1)C(=O)O [Compound A-8]
2,0.225,Cc1ccc(-c2ccc(-c3ccc(S(=O)(=O)N[C@H](CC(C)C)C(=O)O)cc3)s2)cc1 [Compound K-6]
3,0.0197,CSCC[C@@H](NS(=O)(=O)c1ccc(-c2ccc(SC)cc2)cc1)C(=O)O [Compound E-7]
4,0.0165,CSc1ccc(-c2ccc(S(=O)(=O)N[C@H](CO)C(=O)O)cc2)cc1 [Compound E-12]
5,0.0183,O=C(O)C[C@@H](NS(=O)(=O)c1ccc(-c2ncc(-c3ccc4c(c3)OCO4)s2)cc1)C(=O)O [Compound A-20]
6,0.21,Cc1ccc(-c2ccc(S(=O)(=O)N[C@H](Cc3c[nH]c4ccccc34)C(=O)O)s2)cc1 [Compound F-10]
7,0.6,O=C(O)[C@@H]1[C@@H](NS(=O)(=O)c2ccc(-c3ccc(N4CCCC4)cc3)s2)[C@H]2C=C[C@@H]1C2 [Compound O-10]
8,0.63,Cc1ccc(-c2ccc(S(=O)(=O)N[C@@H](Cc3c[nH]c4ccccc34)C(=O)O)s2)cc1 [Compound F-19]
9,0.036,O=C(O)[C@@H](Cc1c[nH]c2ccccc12)NS(=O)(=O)c1ccc(-c2ccc(F)cc2)cc1 [Compound E-27]
10,0.0013,CCC(C)[C@H](NS(=O)(=O)c1ccc(-c2ncc(-c3ccc(OC)cc3)s2)cc1)C(=O)O (stereo partly drawn) [Compound A-2]
11,0.0091,CSc1ccc(-c2ccc(S(=O)(=O)N[C@@H](CCC(=O)O)C(=O)O)cc2)cc1 [Compound E-11]
12,0.0026,CSc1ccc(-c2ccc(S(=O)(=O)NC(Cc3ccccc3)C(=O)O)cc2)cc1 (stereo not drawn) [Compound E-30]
13,0.0024,COc1ccc(-c2cnc(-c3ccc(S(=O)(=O)N[C@H](CCC(=O)O)C(=O)O)cc3)s2)cc1 [Compound A-4]
14,0.0147,CSc1ccc(-c2ccc(-c3ccc(S(=O)(=O)N[C@@H](C(=O)O)C(C)C)s3)s2)cc1 [Compound L-2]
15,0.0101,C=Cc1ccc(-c2ccc(S(=O)(=O)N[C@@H](C(=O)O)C(C)C)s2)cc1 [Compound F-26]
16,0.002,CSc1ccc(-c2ccc(-c3ccc(S(=O)(=O)N[C@@H](C(=O)O)C(C)C)cc3)cc2)cc1 [Compound E-21]
17,0.151,Cc1ccc(C#Cc2ccc(S(=O)(=O)N[C@H](CCC(=O)O)C(=O)O)s2)cc1 [Compound H-8]
18,> 10,O=C(O)[C@H](Cc1ccccc1)NS(=O)(=O)c1ccc(-c2noc(-c3ccc4cc(Br)ccc4c3)n2)cc1 [Compound C-9]
19,0.883,CSc1ccc(-c2ccc(S(=O)(=O)N3CCNC(=O)C3C)cc2)cc1 (stereo not drawn) [Compound O-7]
20,0.0132,CSc1ccc(-c2ccc(S(=O)(=O)N[C@H](CC(=O)O)C(=O)O)cc2)cc1 [Compound E-9]
21,0.0052,CC(C)[C@@H](NS(=O)(=O)c1ccc(-c2ncc(-c3ccc4c(c3)OCO4)s2)cc1)C(=O)O [Compound A-18]
22,0.0236,CSc1ccc(-c2ccc(S(=O)(=O)N[C@H](CCC(=O)O)C(=O)O)cc2)cc1 [Compound E-10]
23,0.0104,O=C(O)[C@@H](Cc1ccccc1)NS(=O)(=O)c1ccc(-c2ccc(-n3cccc3)cc2)s1 [Compound F-14]

row,IC50 [µM],SMILES
1,0.00526,CSc1ccc(-c2ccc(-c3ccc(S(=O)(=O)N[C@@H](C(=O)O)C(C)C)cc3)s2)cc1 [Compound K-5]
2,> 10,O=C(O)[C@H](Cc1ccccc1)NS(=O)(=O)c1ccc(-n2nnc(-c3ccc4ccccc4c3)n2)cc1 [Compound J-3]
3,0.15,COc1ccc2cc(C#Cc3ccc(S(=O)(=O)N[C@H](Cc4ccccc4)C(=O)O)s3)ccc2c1 [Compound H-12]
4,0.0154,O=C(O)C[C@@H](NS(=O)(=O)c1ccc(-c2ncc(-c3ccc(Cl)c(Cl)c3)s2)cc1)C(=O)O [Compound A-16]
5,0.0022,CCC(C)C(NS(=O)(=O)c1ccc(-c2ccc(SC)cc2)cc1)C(=O)O (stereo not drawn) [Compound E-5]
6,0.53,COc1ccc(-c2ccc(S(=O)(=O)NC(C(=O)O)C(C)C)s2)cc1 (stereo not drawn) [Compound F-2]
7,0.0179,CCCCc1ccc(-n2nnc(-c3ccc(S(=O)(=O)N[C@H](Cc4ccccc4)C(=O)O)cc3)n2)cc1 [Compound I-5]
8,0.036,O=C(O)[C@@H](Cc1ccccc1)NS(=O)(=O)c1ccc(-c2nnn(-c3ccc(Br)cc3)n2)cc1 [Compound I-1]
9,0.0199,COc1ccc(-c2cnc(-c3ccc(S(=O)(=O)N[C@H](CCC(=O)O)C(=O)O)cc3)o2)cc1 [Compound B-1]
10,0.028,CCCCc1ccc(-c2noc(-c3ccc(S(=O)(=O)N[C@@H](C(=O)O)C(C)C)cc3)n2)cc1 [Compound D-1]
11,0.0114,CC(C)C[C@H](NS(=O)(=O)c1ccc(-c2ncc(-c3ccc(F)cc3)s2)cc1)C(=O)O [Compound A-11]
12,0.134,Cc1ccc(-c2ccc(-c3ccc(S(=O)(=O)N[C@H](C(=O)O)C(C)C)s3)s2)cc1 [Compound L-5]
13,0.0938,CSCC[C@@H](NS(=O)(=O)c1ccc(-c2ccc(-c3ccc(C)cc3)s2)cc1)C(=O)O [Compound K-4]
14,0.00877,Cc1ccc(-c2ccc(S(=O)(=O)N[C@H](Cc3c[nH]c4ccccc34)C(=O)O)cc2)cc1 [Compound E-2]
15,0.002,CC(C)[C@H](NS(=O)(=O)c1ccc(-c2ncc(-c3ccc(Br)cc3)s2)cc1)C(=O)O [Compound A-5]
16,0.049,O=C(O)[C@H](Cc1ccccc1)NS(=O)(=O)c1ccc(-c2noc(-c3ccc4c(c3)OCO4)n2)cc1 [Compound C-8]
17,0.109,Cc1ccc(-c2ccc(-c3ccc(S(=O)(=O)N[C@H](Cc4ccccc4)C(=O)O)s3)s2)cc1 [Compound L-3]
18,> 10,CC(C)[C@@H](NS(=O)(=O)c1ccc(C#Cc2ccc(O)cc2)cc1)C(=O)O [Compound G-3]
19,0.0065,C[C@@H](NS(=O)(=O)c1ccc(-c2ncc(-c3ccc4c(c3)OCO4)s2)cc1)C(=O)O [Compound A-17]
20,0.0116,CCCCc1ccc(-c2ccc(-c3ccc(S(=O)(=O)N[C@@H](C(=O)O)C(C)C)cc3)s2)cc1 [Compound K-2]
21,0.044,O=C(O)[C@@H](Cc1ccccc1)NS(=O)(=O)c1ccc(C#Cc2ccc3c(c2)OCO3)s1 [Compound H-1]
22,> 10,Cc1ccc(C#Cc2ccc(S(=O)(=O)N[C@H](Cc3ccccc3)C(=O)O)cc2[N+](=O)[O-])cc1 [Compound G-4]
